Measured values published in US20180213779A1, “PESTICIDALLY ACTIVE HETEROCYCLIC DERIVATIVES WITH SULPHUR CONTAINING SUBSTITUENTS” (SYNGENTA PARTICIPATIONS AG, priority 2015, published 2018).

Key:
Type in all cases: in vivo
[1] = tested on: Myzus persicae (Green Peach Aphid); test: Example B10: Activity against Myzus persicae (sucrose solution, Parafilm feeding); conditions: 120 h, test rate of 12 ppm, 5 days after infestation
From the text: Example B10: Activity Against Myzus persicae (Green Peach Aphid)
Test compounds prepared from 10′000 ppm DMSO stock solutions were applied by pipette into 24-well microtiter plates and mixed with sucrose solution. The plates were closed with a stretched Parafilm. A plastic stencil with 24 holes was placed onto the plate and infested pea seedlings were placed directly on the Parafilm. The infested plate was closed with a gel blotting paper and another plastic stencil and then turned upside down. The samples were assessed for mortality 5 days after infestation.

[2] = tested on: Diabrotica balteata (Corn Root Worm); test: Example B6: Activity against Diabrotica balteata (sprayed maize sprouts); conditions: 96 h, application rate of 200 ppm, L2 larvae, 4 days after infestation, read-out: effect in at least one of the two categories (mortality or growth inhibition)
Procedure: Example B6: Activity Against Diabrotica Balteata (Corn Root Worm)
Maize sprouts placed onto an agar layer in 24-well microtiter plates were treated with aqueous test solutions prepared from 10′000 ppm DMSO stock solutions by spraying. After drying, the plates were infested with L2 larvae (6 to 10 per well). The samples were assessed for mortality and growth inhibition in comparison to untreated samples 4 days after infestation.

[3] = tested on: Myzus persicae (Green Peach Aphid); test: Example B8: Activity against Myzus persicae (sprayed sunflower leaf discs); conditions: foliar, 144 h, application rate of 200 ppm, mixed ages, 6 days after infestation
Procedure: Example B8: Activity Against Myzus persicae (Green Peach Aphid)
Sunflower leaf discs were placed onto agar in a 24-well microtiter plate and sprayed with aqueous test solutions prepared from 10′000 ppm DMSO stock solutions. After drying, the leaf discs were infested with an aphid population of mixed ages. The samples were assessed for mortality 6 days after infestation.

[4] = tested on: Plutella xylostella (Diamond-Back Moth); test: Example B3: Plutella xylostella larvicide, feeding/contact activity, preventative (artificial diet, 96-well); conditions: 216 h, application rate of 500 ppm, mortality assessed 9 days after treatment
Procedure: Example B3: Plutella xylostella (Diamond-Back Moth) larvicide, feeding/contact activity, preventative Artificial diet was dispensed into a 96-well microtiter plate and treated with aqueous test solutions prepared from 10′000 ppm DMSO stock solutions. Eggs were suspended above the treated diet and first instar larvae hatched onto the diet. Mortality was assessed 9 days after treatment.

[5] = tested on: Spodoptera littoralis (Egyptian Cotton Leaf Worm); test: Example B4: Activity against Spodoptera littoralis (sprayed cotton leaf discs); conditions: foliar, 72 h, application rate of 200 ppm, L1 larvae, 3 days after infestation
Procedure: Example B4: Activity Against Spodoptera littoralis (Egyptian Cotton Leaf Worm)
Cotton leaf discs were placed on agar in 24-well microtiter plates and sprayed with aqueous test solutions prepared from 10′000 ppm DMSO stock solutions. After drying the leaf discs were infested with five L1 larvae. The samples were assessed for mortality, anti-feedant effect, and growth inhibition in comparison to untreated samples 3 days after infestation. Control of Spodoptera littoralis by a test sample is given when at least one of the categories mortality, anti-feedant effect, and growth inhibition is higher than the untreated sample.

[6] = tested on: Plutella xylostella (Diamond Back Moth); test: Example B11: Activity against Plutella xylostella (artificial diet, 24-well, L2 larvae); conditions: 120 h, application rate of 200 ppm, 5 days after infestation, read-out: effect in at least one of the two categories (mortality or growth inhibition)
Procedure: Example B11: Activity Against Plutella xylostella (Diamond Back Moth)
24-well microtiter plates with artificial diet were treated with aqueous test solutions prepared from 10′000 ppm DMSO stock solutions by pipetting. After drying, the plates were infested with L2 larvae (10 to 15 per well). The samples were assessed for mortality and growth inhibition in comparison to untreated samples 5 days after infestation.

[7] = tested on: Tetranychus urticae (Two-Spotted Spider Mite); test: Example B12: Activity against Tetranychus urticae (sprayed bean leaf discs); conditions: foliar, 192 h, application rate of 200 ppm, mixed population (mobile stages), 8 days after infestation
Procedure: Example B12: Activity Against Tetranychus urticae (Two-Spotted Spider Mite)
Bean leaf discs on agar in 24-well microtiter plates were sprayed with aqueous test solutions prepared from 10′000 ppm DMSO stock solutions. After drying the leaf discs were infested with a mite population of mixed ages. The samples were assessed for mortality on mixed population (mobile stages) 8 days after infestation.

Question: What does the source list for `CCSc1cccnc1-c1cn(-c2cncc(C(F)(F)F)c2)nn1` [Compound P19]?
Answer: mortality at 12 ppm [1]: ≥ 80%; effect (mortality or growth inhibition) at 200 ppm [2]: ≥ 80%; mortality at 200 ppm [3]: ≥ 80%; pest or weed control at 500 ppm [4]: ≥ 70%

Question: With `CCS(=O)(=O)c1cc(Br)cnc1-c1cn(-c2cccc(C(F)(F)F)c2)nn1` [Compound P12, 5-bromo-3-ethylsulfonyl-2-[1-[3-(trifluoromethyl)phenyl]triazol-4-yl]pyridine] as the molecule, how does the percent control (mortality, anti-feedant effect or growth inhibition) at 200 ppm [5] read?
Answer: ≥ 80%

Question: And the effect (mortality or growth inhibition) at 200 ppm [2]?
Answer: ≥ 80%

Question: What about the percent effect (mortality or growth inhibition) at 200 ppm [6] of the same molecule?
Answer: ≥ 80%

Question: And the mortality at 200 ppm [7]?
Answer: ≥ 80%

Question: And the pest or weed control at 500 ppm [4]?
Answer: ≥ 70%
